System: GFP-inserted Type V collagen α1 expression MC3T3-E1
Assay: Fibrogenesis inhibitory experiment in stress culture in multi-well plates
Assay type: cell-based, mouse
Settings: 1.0 mg/ml added when switched to stress culture; observed after 28 days; compared to wells without Pirfenidone; FIG. 18
Protocol: Normal cultivation was performed using the following materials. Cultivations using MC3T3-E1 and Balb3T3, respectively, were performed in αMEM medium containing 10% serum, and in MEM medium containing 10% serum, at 37° C. and 5% CO2. • Serum: Fetal bovine serum (Gibco) • Medium: Minimum Essential Medium Alpha (Gibco) • Medium: Minimum Essential Medium (Gibco) • Dish for culturing cells: Cell culture dish 60×15 mm (Falcon)
The following flasks were filled with medium for shaking culture. • Cell-culture flasks: 25 mL (Falcon) of Cell culture flask (12.5 cm^2 slant neck/plug seal)
The shaking culture was performed using a mini-shaker SHM-2002 (LMS) at a shaking angle of 7° and a rotational speed of 20 rpm using a sunflower shaking method.
OLYMPUS LX73 was used for fluorescent microscopy. The following filter sets were used for fluorescence imaging. • Green Fluorescence: U-EGFP (OLYMPUS), Ex: 470/20, Em: 518/45 • Red fluorescence: BrightLine®SpGold-B-000-ZERO (Semrock), Ex: 534/20, Em: 572/28 • Near Infrared Fluorescence: BrightLine®Cy5.5-B-000 (Semrock), Ex: 655/40, Em: 716/40
The GFP-inserted Type V collagen α1 expression MC3T3-E1 was cultured in multi-well plates and when switched to stress cultures capable of inducing collagen secretion, 1.0 mg/ml of Pirfenidone was added and compared to wells without such addition of Pirfenidone. […]

Cc1ccc(=O)n(-c2ccccc2)c1 [Pirfenidone]
extracellular collagen fiber formation (green fluorescent fiber structures): inhibited
